Assay results: PubChem BioAssay AID252 (DTP/NCI, 2004)
Where “and” joins values, the source holds several entries; their conditions need not be identical. Equal entries are not always repeated. Inconclusive results and toxic doses are left out.

System: BDF1 mice, intracerebral L1210 leukemia, survival T/C
Assay: NCI In Vivo Anticancer Drug Screen. Data for tumor model L1210 Leukemia (intracerebral) in B6D2F1 (BDF1) mice
Conditions: higher = longer survival
Outline: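 Antitumour effect is judged in mice with transplanted tumour by comparing survival of treated (T) against vehicle-dosed (C) groups as T/C.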

## CNNCc1ccc(C(=O)NC(C)C)cc1
endpoint: mean survival time, dose: 25.0 mg/kg/injection, schedule: Q01DX009 (ip), vehicle: saline
  T/C: 105 % of control
endpoint: mean survival time, dose: 40.0 mg/kg/injection, schedule: Q01DX Z (ip), vehicle: saline
  T/C: 122 % of control
endpoint: mean survival time, dose: 50.0 mg/kg/injection, schedule: Q01DX009 (ip), vehicle: saline
  T/C: 108 % of control
endpoint: mean survival time, dose: 64.0 mg/kg/injection, schedule: Q01DX010 (oral), vehicle: clinical formulation
  T/C: 102 % of control
endpoint: mean survival time, dose: 160.0 mg/kg/injection, schedule: Q01DX Z (ip), vehicle: saline
  T/C: 155 % of control
endpoint: median survival time, dose: 0.5 mg/kg/injection, schedule: Q01DX010 (ip), vehicle: clinical formulation
  T/C: 105 % of control
endpoint: median survival time, dose: 0.5 mg/kg/injection, schedule: Q01DX010 (ip), vehicle: saline
  T/C: 106 % of control
endpoint: median survival time, dose: 1.0 mg/kg/injection, schedule: Q01DX010 (ip), vehicle: clinical formulation
  T/C: 105 % of control
endpoint: median survival time, dose: 1.0 mg/kg/injection, schedule: Q01DX010 (ip), vehicle: saline
  T/C: 103 % of control
endpoint: median survival time, dose: 1.0 mg/kg/injection, schedule: Q01DX010 (oral), vehicle: clinical formulation
  T/C: 105 % of control
endpoint: median survival time, dose: 2.0 mg/kg/injection, schedule: Q01DX010 (ip), vehicle: clinical formulation
  T/C: 103 % of control
endpoint: median survival time, dose: 2.0 mg/kg/injection, schedule: Q01DX010 (ip), vehicle: saline
  T/C: 106 % of control
endpoint: median survival time, dose: 2.0 mg/kg/injection, schedule: Q01DX010 (oral), vehicle: clinical formulation
  T/C: 103 % of control
endpoint: median survival time, dose: 4.0 mg/kg/injection, schedule: Q01DX010 (ip), vehicle: clinical formulation
  T/C: 99 % of control
endpoint: median survival time, dose: 4.0 mg/kg/injection, schedule: Q01DX010 (ip), vehicle: saline
  T/C: 106 % of control
endpoint: median survival time, dose: 4.0 mg/kg/injection, schedule: Q01DX010 (oral), vehicle: clinical formulation
  T/C: 105 % of control
endpoint: median survival time, dose: 8.0 mg/kg/injection, schedule: Q01DX010 (ip), vehicle: clinical formulation
  T/C: 101 % of control
endpoint: median survival time, dose: 8.0 mg/kg/injection, schedule: Q01DX010 (ip), vehicle: saline
  T/C: 111 % of control
endpoint: median survival time, dose: 8.0 mg/kg/injection, schedule: Q01DX010 (oral), vehicle: clinical formulation
  T/C: 95 % of control
endpoint: median survival time, dose: 16.0 mg/kg/injection, schedule: Q01DX010 (ip), vehicle: clinical formulation
  T/C: 103 % of control
endpoint: median survival time, dose: 16.0 mg/kg/injection, schedule: Q01DX010 (ip), vehicle: saline
  T/C: 109 % of control
endpoint: median survival time, dose: 16.0 mg/kg/injection, schedule: Q01DX010 (oral), vehicle: clinical formulation
  T/C: 92 % of control
endpoint: median survival time, dose: 32.0 mg/kg/injection, schedule: Q01DX010 (ip), vehicle: clinical formulation
  T/C: 101 % of control
endpoint: median survival time, dose: 32.0 mg/kg/injection, schedule: Q01DX010 (ip), vehicle: saline
  T/C: 104 % of control
endpoint: median survival time, dose: 32.0 mg/kg/injection, schedule: Q01DX010 (oral), vehicle: clinical formulation
  T/C: 97 % of control
endpoint: median survival time, dose: 64.0 mg/kg/injection, schedule: Q01DX010 (oral), vehicle: clinical formulation
  T/C: 109 % of control
endpoint: median survival time, dose: 128.0 mg/kg/injection, schedule: Q01DX010 (oral), vehicle: clinical formulation
  T/C: 104 % of control

## O=NN(CCCl)C(=O)NC1C=CCCC1 (stereo not drawn)
endpoint: mean survival time, dose: 15.0 mg/kg/injection, schedule: Q01DX001 (ip), vehicle: other
  T/C: 110 % of control
endpoint: mean survival time, dose: 20.0 mg/kg/injection, schedule: Q01DX001 (ip), vehicle: other
  T/C: 118 % of control
endpoint: mean survival time, dose: 25.0 mg/kg/injection, schedule: Q01DX001 (ip), vehicle: other
  T/C: 122 % of control
endpoint: mean survival time, dose: 30.0 mg/kg/injection, schedule: Q01DX001 (ip), vehicle: other
  T/C: 118 % of control
endpoint: mean survival time, dose: 35.0 mg/kg/injection, schedule: Q01DX001 (ip), vehicle: other
  T/C: 123 % of control

## c1nc(SSc2ncnc3nc[nH]c23)c2[nH]cnc2n1
endpoint: mean survival time, dose: 75.0 mg/kg/injection, schedule: Q04DX003 (ip), vehicle: Klucel (hydroxypropylcellulose) (HPC)
  T/C: 108 % of control

## O=C1NC2(CCCCC2)C(=O)N1CCN(CCCl)CCCl
endpoint: mean survival time, dose: 0.78 mg/kg/injection, schedule: Q01DX009 (ip), vehicle: saline
  T/C: 101 % of control
endpoint: mean survival time, dose: 1.56 mg/kg/injection, schedule: Q01DX009 (ip), vehicle: saline
  T/C: 89 % of control
endpoint: mean survival time, dose: 3.12 mg/kg/injection, schedule: Q01DX009 (ip), vehicle: saline
  T/C: 95 % of control
endpoint: mean survival time, dose: 6.25 mg/kg/injection, schedule: Q01DX009 (ip), vehicle: saline
  T/C: 102 % of control
endpoint: mean survival time, dose: 12.5 mg/kg/injection, schedule: Q01DX009 (ip), vehicle: saline
  T/C: 91 % of control

## O=NN(CCCl)C(=O)Nc1cccc([N+](=O)[O-])c1
endpoint: mean survival time, dose: 12.0 mg/kg/injection, schedule: Q01DX001 (ip), vehicle: carboxymethylcellulose (CMC)
  T/C: 102 % of control
endpoint: mean survival time, dose: 18.0 mg/kg/injection, schedule: Q01DX001 (ip), vehicle: carboxymethylcellulose (CMC)
  T/C: 118 % of control
endpoint: mean survival time, dose: 26.0 mg/kg/injection, schedule: Q01DX001 (ip), vehicle: carboxymethylcellulose (CMC)
  T/C: 117 % of control
endpoint: mean survival time, dose: 40.0 mg/kg/injection, schedule: Q01DX001 (ip), vehicle: carboxymethylcellulose (CMC)
  T/C: 115 % of control

## N#CCCN1c2ccccc2Sc2ccccc21
endpoint: mean survival time, dose: 12.5 mg/kg/injection, schedule: Q04DX003 (ip), vehicle: Klucel (hydroxypropylcellulose) (HPC)
  T/C: 100 % of control
endpoint: mean survival time, dose: 25.0 mg/kg/injection, schedule: Q04DX003 (ip), vehicle: Klucel (hydroxypropylcellulose) (HPC)
  T/C: 96 % of control
endpoint: mean survival time, dose: 50.0 mg/kg/injection, schedule: Q04DX003 (ip), vehicle: Klucel (hydroxypropylcellulose) (HPC)
  T/C: 109 % of control
endpoint: mean survival time, dose: 100.0 mg/kg/injection, schedule: Q04DX003 (ip), vehicle: Klucel (hydroxypropylcellulose) (HPC)
  T/C: 104 % of control
endpoint: mean survival time, dose: 200.0 mg/kg/injection, schedule: Q04DX003 (ip), vehicle: Klucel (hydroxypropylcellulose) (HPC)
  T/C: 98 % of control

## O=C1C(NC(=O)C2CCCCC2)=C(N2CC2)C(=O)C(NC(=O)C2CCCCC2)=C1N1CC1
endpoint: mean survival time, dose: 25.0 mg/kg/injection, schedule: Q01DX009 (ip), vehicle: Klucel (hydroxypropylcellulose) (HPC)
  T/C: 111 % of control
endpoint: mean survival time, dose: 50.0 mg/kg/injection, schedule: Q01DX009 (ip), vehicle: Klucel (hydroxypropylcellulose) (HPC)
  T/C: 101 % of control and 102 % of control and 241 % of control
endpoint: mean survival time, dose: 50.0 mg/kg/injection, schedule: Q01DX Z (ip), vehicle: carboxymethylcellulose (CMC)
  T/C: 104 % of control
endpoint: mean survival time, dose: 100.0 mg/kg/injection, schedule: Q01DX Z (ip), vehicle: carboxymethylcellulose (CMC)
  T/C: 103 % of control
endpoint: mean survival time, dose: 200.0 mg/kg/injection, schedule: Q01DX009 (ip), vehicle: Klucel (hydroxypropylcellulose) (HPC)
  T/C: 105 % of control and 115 % of control and 119 % of control
endpoint: mean survival time, dose: 200.0 mg/kg/injection, schedule: Q01DX Z (ip), vehicle: carboxymethylcellulose (CMC)
  T/C: 103 % of control
endpoint: mean survival time, dose: 400.0 mg/kg/injection, schedule: Q01DX009 (ip), vehicle: Klucel (hydroxypropylcellulose) (HPC)
  T/C: 119 % of control and 97 % of control
endpoint: mean survival time, dose: 400.0 mg/kg/injection, schedule: Q01DX Z (ip), vehicle: carboxymethylcellulose (CMC)
  T/C: 116 % of control
endpoint: mean survival time, dose: 440.0 mg/kg/injection, schedule: Q01DX001 (ip), vehicle: carboxymethylcellulose (CMC)
  T/C: 96 % of control and 98 % of control
endpoint: mean survival time, dose: 670.0 mg/kg/injection, schedule: Q01DX001 (ip), vehicle: carboxymethylcellulose (CMC)
  T/C: 104 % of control and 97 % of control
endpoint: mean survival time, dose: 800.0 mg/kg/injection, schedule: Q01DX009 (ip), vehicle: Klucel (hydroxypropylcellulose) (HPC)
  T/C: 104 % of control
endpoint: mean survival time, dose: 1000.0 mg/kg/injection, schedule: Q01DX001 (ip), vehicle: carboxymethylcellulose (CMC)
  T/C: 102 % of control and 103 % of control

## Cc1cccc(C)c1NC(=O)N(CCCl)N=O
endpoint: mean survival time, dose: 13.0 mg/kg/injection, schedule: Q01DX001 (ip), vehicle: carboxymethylcellulose (CMC)
  T/C: 113 % of control
endpoint: mean survival time, dose: 20.0 mg/kg/injection, schedule: Q01DX001 (ip), vehicle: carboxymethylcellulose (CMC)
  T/C: 112 % of control
endpoint: mean survival time, dose: 30.0 mg/kg/injection, schedule: Q01DX001 (ip), vehicle: carboxymethylcellulose (CMC)
  T/C: 119 % of control

## CN(N=O)C(=O)NC(=O)N(C)N=O
endpoint: mean survival time, dose: 27.5 mg/kg/injection, schedule: Q01DX001 (ip), vehicle: carboxymethylcellulose (CMC)
  T/C: 107 % of control
endpoint: mean survival time, dose: 54.0 mg/kg/injection, schedule: Q01DX001 (ip), vehicle: carboxymethylcellulose (CMC)
  T/C: 104 % of control

## Nc1nc2n[nH]nc2c(=O)[nH]1
endpoint: mean survival time, dose: 89.0 mg/kg/injection, schedule: Q01DX015 (ip), vehicle: water
  T/C: 170 % of control
endpoint: mean survival time, dose: 117.0 mg/kg/injection, schedule: Q01DX001 (ip), vehicle: carboxymethylcellulose (CMC)
  T/C: 108 % of control
endpoint: mean survival time, dose: 179.0 mg/kg/injection, schedule: Q01DX001 (ip), vehicle: carboxymethylcellulose (CMC)
  T/C: 107 % of control
endpoint: mean survival time, dose: 267.0 mg/kg/injection, schedule: Q01DX001 (ip), vehicle: carboxymethylcellulose (CMC)
  T/C: 105 % of control
